Columns and labels:
[1] = Experimental determination of lipophilicity as RM values (RP-TLC); format: physicochemical; details: methanol/water 70/30 v/v, 24 °C, SD < 10%
Excerpt: Lipophilicity is an important physicochemical parameter of a drug candidate, linking solubility and membrane permeability with the ADMET (absorption, distribution, metabolism, elimination and toxicity) properties and the overall suitability of a molecule. Reversed-phase thin-layer chromatography was the method used to experimentally determine the lipophilic character of the synthesized compounds as RM values (Table 2). Lipophilicity was also theoretically calculated as clog P values using the Bio-Loom program of BioByte Corp (http://www.biobyte.com/, (accessed on 1 March 2023)). An attempt was made to correlate the experimental RM values with the theoretically calculated clog P values (Table 2). […] This disagreement could be attributed to several factors, e.g., different solvation, silanophilic interactions and hydrogen bonding.
Lipophilicity as RM values was determined through reversed-phase TLC (RP-TLC) on silica gel plates impregnated with 5% v/v liquid paraffin in light petroleum ether. Methanol/water mixture (70/30, v/v) was used as mobile phase. Closed chromatography tanks saturated with the mobile phase at 24 °C were used for the development of the plates while the spots were detected under UV light. For the determination of RM values, five individual measurements of Rf values were recorded, and the RM values were derived from the following Equation (1). (1) RM=log1/Rf−1

[2] = Inhibition of AAPH induced linoleic acid peroxidation
Experimental: For the lipid peroxidation study, 2,2′-Azobis(2-methylpropionamidine) dihydrochloride (AAPH) was used as the generator of peroxy radicals and sodium linoleate as the substrate that undergoes peroxidation. The conversion of linoleic acid to 13-hydroperoxy-linoleic acid was recorded at 234 nm. The change of absorbance reflects the possible antioxidant activity of the tested compounds, in comparison with the reference compound, Trolox.
In vitro study was performed as reported previously by our group. AAPH was used as a free radical generator of alkyl peroxyl radicals. For this experimental procedure, 10 μL of the tested compound (from the stock solution), 10 μL sodium linoleate (16 mM), 50 μL AAPH (40 mM) and 930 μL phosphate-buffered solution (pH 7.4) were added in a UV cuvette (1 mL), pre thermostated at 37 °C. The ability of the compounds to prevent the oxidation of linoleic acid from alkyl peroxyl radicals was evaluated by recording the change of absorbance at 234 nm, due to the conversion of linoleic acid to 13-hydroperoxy-linoleic acid. Trolox was used as the reference.

[3] = molecular target: T1, soybean lipoxygenase (Glycine max, UniProt P08170); assay: Inhibition of soybean lipoxygenase; format: biochemical; details: 100 μM; cells of the mixed column without μM; read-out: LOX % Inhibition 100 μM
T1 construct: purchased Sigma Aldrich- Merck KGaA, Darmstadt, Germany
T1 sequence (P08170 1-839): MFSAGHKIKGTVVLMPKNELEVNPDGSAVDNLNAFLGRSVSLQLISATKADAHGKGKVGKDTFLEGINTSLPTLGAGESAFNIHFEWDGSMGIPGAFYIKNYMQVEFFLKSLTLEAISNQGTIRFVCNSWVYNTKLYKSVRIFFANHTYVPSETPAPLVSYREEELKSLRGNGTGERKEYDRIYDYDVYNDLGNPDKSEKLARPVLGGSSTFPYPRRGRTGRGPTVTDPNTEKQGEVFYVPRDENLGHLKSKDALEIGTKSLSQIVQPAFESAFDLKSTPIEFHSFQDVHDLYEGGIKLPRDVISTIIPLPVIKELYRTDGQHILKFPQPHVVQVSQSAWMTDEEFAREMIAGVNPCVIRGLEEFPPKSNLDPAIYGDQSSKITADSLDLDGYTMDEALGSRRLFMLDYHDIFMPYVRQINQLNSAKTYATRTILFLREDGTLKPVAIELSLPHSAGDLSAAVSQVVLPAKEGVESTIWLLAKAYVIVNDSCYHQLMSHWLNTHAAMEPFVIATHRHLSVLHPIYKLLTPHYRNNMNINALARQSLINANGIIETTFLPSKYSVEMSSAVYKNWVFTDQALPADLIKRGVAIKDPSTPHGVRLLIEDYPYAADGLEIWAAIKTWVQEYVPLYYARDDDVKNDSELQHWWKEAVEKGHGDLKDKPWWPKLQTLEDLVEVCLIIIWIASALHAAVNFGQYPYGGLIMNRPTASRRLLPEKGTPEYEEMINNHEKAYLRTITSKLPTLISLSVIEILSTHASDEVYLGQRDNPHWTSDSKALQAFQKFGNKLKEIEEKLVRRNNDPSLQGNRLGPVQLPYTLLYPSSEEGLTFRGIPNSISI
Excerpt: Lipoxygenase (LOX) is the key enzyme in the biosynthesis of inflammatory mediators; thus, it is considered a target for inflammatory diseases. Soybean LOX is a plant enzyme that has been used widely as a prototype for studying the functional and structural properties of the homologous family of lipoxygenases, presenting satisfactory homology with the human 5-LOX [42]. Linoleic acid is the most common substrate in plant LOX. […] Lipophilicity is considered one of the most important parameters with regard to LOX inhibitors according to the literature.
In vitro study was performed as reported previously by our group. In this experiment, 10 μL of the tested compound (from the stock solution) were incubated with 100 μL sodium linoleate (diluted in Tris buffer), 200 μL LOX solution (1:9 × 10^−4 w/v in saline) and 690 μL Tris buffer (pH 9.0) at room temperature. The absorbance was measured at 234 nm, where the change of absorbance was recorded due to the formation of 13-hydroperoxy-linoleic acid. […] In order to determine the IC50 values, different concentrations were used.

[4] = tested on: A549 cell line; assay: MTT cytotoxicity assay, A549; format: cell-based, human; details: Homo sapiens, 24 h
Experimental: The compounds of this study were also tested for their cytotoxic effects against the adenocarcinomic human alveolar basal epithelial cell line (A549) at different concentrations (100 μM, 75 μΜ, 50 μM and 10 μM).
Τhe MTT assay was used to evaluate cell viability or cell toxicity, depending on the cell line being tested. The experimental procedure was performed in a 96-well plate, where the cells were seeded and incubated (37 °C, 5% CO2) for 24 h to grow and cover the surface of the wells. Τhe seeding concentrations for the HaCaT and A549 cells were 30 × 10^4 cells/mL and 20 × 10^4 cells/mL, respectively. After the first incubation, the solutions of the compounds (with different concentrations) were added to the adherent cells and incubated for another 24 h. The compounds were tested in triplicate against the control (only cells in medium), the blank (only medium) and the positive/negative control (cells in 100 μM silibinin solution) triplicates. Silibinin, a flavonoid with known anticancer activities, was used as a negative control for the cell viability assay and as positive control for the cytotoxicity testing assay. The light-sensitive MTT-standard solution was prepared by dissolving 1 mg/mL MTT in PBS and then filtrated (in a […] filter (Millipore, Carrigtwohill, Ireland)). On the third day, an appropriate amount of ΜΤΤ solution was added to each well and the plate was incubated for 4 h. During the incubation time, the formazan crystals were formed, which were then dissolved with 100 μL DMSO per well. Finally, the plate was stirred for 30 min, and the optical density (OD) was measured in a plate reader spectrophotometer at 450 nm.

RM [1]: −0.48
inhibition at 100 µM [3]: 27%
SMILES: O=c1[nH]c(=S)[nH]c2nc(-c3ccc(Cl)cc3)cc(-c3ccc(Cl)cc3Cl)c12 [Compound 2h, 7-(4-chlorophenyl)-5-(2,4-dichlorophenyl)-2-thioxo-2,3-dihydropyrido [2,3-d]pyrimidin-4(1H)-one]
AAPH % Inhibition 100 μM [2]: 99%
cytotoxicity at 10 µM ([4]; A549, 10 μΜ, read-out: % Cell Toxicity 10 μΜ): 49.1%
cytotoxicity at 50 µM ([4]; A549, 50 μΜ, read-out: % Cell Toxicity 50 μΜ): 76.9%
cytotoxicity at 100 µM ([4]; A549, 100 μΜ, read-out: % Cell Toxicity 100 μΜ): 100%

From paper PMC10180197, “Novel Pyrimidine Derivatives as Antioxidant and Anticancer Agents: Design, Synthesis and Molecular Modeling Studies” (Molecules, 2023)
